Earlier results on three compounds are cited in paper PMC6270976, “Pharmacokinetic Study in Mice of Galphimine-A, an Anxiolytic Compound from Galphimia glauca” (Molecules, 2014).

“Also recorded” adds a separate entry of the source. Like-named read-outs stand apart in the source and are kept apart here.

For data set [1] the following is noted: cited from earlier work.
On the set-up of data set [2]: method as in PMID 14758039. The conditions noted are these: cited from earlier work.
Details of data set [3]: method as in PMID 18452416. The conditions noted are these: humans; cited from earlier work.

Turning to `COC(=O)[C@@]12CC[C@@]3(C)[C@@H]4C=CC(=O)OC[C@]4([C@@H](C)O)[C@@H](OC(C)=O)[C@@H](O)[C@@H]3[C@@]1(C)CC[C@@]1(C)CC=C(C)C[C@]12O` [G–E, galphimine-E], the Anxiolytic activity result in data set [1] is “inactive”. As for `COC(=O)[C@@]12CC[C@@]3(C)[C@@H]4C=CC(=O)OC[C@]4([C@@H](C)O)C[C@@H](O)[C@@H]3[C@@]1(C)CC[C@@]1(C)CC=C(C)C[C@]12O` [G–B, galphimine-B], the Anxiolytic activity entry in data set [1] (among the galphimines) was “most active; also recorded: highest anxiolytic activity”.

With `CC1(C)[C@@H](O)CC[C@]2(C)[C@H]3C(=O)C=C4[C@@H]5C[C@@](C)(C(=O)O)CC[C@]5(C)CC[C@@]4(C)[C@]3(C)CC[C@@H]12` [glycyrrhetinic acid], in data set [2] (mice, 100 mg/kg orally, one-compartment model), the “k10 (elimination rate constant)” value is 0.0006 min⁻¹. Moreover, the “AUC0→∞” value in data set [2] (oral administration in mice) was 2,454 µg·min·mL^−1. The k10 in data set [3] was 0.0012 min⁻¹.
